# Measurements from patent publication US20230150951A1, “2,5- OR 2,6-DISUBSTITUTED HYDROQUINONE DERIVATIVES WITH AT LEAST ONE CARBOXY, SULFO OR AMIDO GROUP USEFUL AS MEDICAMENTS” (OM PHARMA SA, priority 2020, published 2023).
# Read-outs that look alike come from different tables or passages of the source.
# Key:
# Type in all cases: cell-based
# IL-9 = experiment: Cytokine release after LPS induction on human whole blood: IL-9
# Description: (§1) Aim of this in vitro method is to assess compounds effects on release of a panel of cytokines from whole blood following lipopolysaccharide (LPS) induced inflammatory reaction. Whole blood was incubated with compounds for 1 h prior to LPS induction. Cytokine levels in blood were measured using a multiplex FACS-based panel.
# (§2) IC50 values determined for the tested compounds expressed in microM [μM] and the values for the inhibition of cytokines were listed for each compound.
# (§3) Effect on cytokines release after LPS induction was performed on the compounds dissolved in DMSO or H2O to reach 10-fold concentrated stock solutions and dissolved in culture media.
# (§4) Test system: Whole blood was removed from a single donor (into lithium heparin coated tubes; BD Vacutainer; 367886) and diluted 1:5 with RPMI 1640 (Thermo Fisher, 61870036). Within 30 minutes of sampling, blood was incubated with compounds for 1 h prior to LPS stimulation (O111:B4—Sigma L4391; 10 ng/ml final concentration). Stimulation continued under standard cell culture conditions (37° C. with 5% CO2) overnight (18 h), after which plates were centrifuged and supernatant removed and frozen at −80° C. until used for analyses.
# (§5) Dilution of test compounds: 10×concentrated solutions (concerning to the final assay concentrations) of each test compound were prepared with the appropriate solvent (in DMSO or in water). These 10× compound solutions (10 μl) were then added to 90 μl pre-diluted whole blood (whole blood: RPMI1640, 1:5) resulting in the final assay concentration.
# (§6) Test method: Diluted whole blood (80 μl) was pre-incubated with compounds (10 μl) to give final assay concentrations of 100, 30, 10, 3, 1, 0.3 and 0.1×10^−6M. Blood was incubated at 37° C. with 5% CO2 for 1 h. LPS was diluted in cell culture media to a concentration of […]; 10 μl was added to the whole blood to give a final concentration of 10 ng/ml. Plates were incubated at 37° C. for 18 h. Plates were centrifuged at 3,000 RPM for 5 minutes at 4° C. and supernatant removed and frozen at −80° C. until FACS analysis was carried out.
# (§7) Cytokine release was measured using a custom multiplex system (ELISA Genie) according to manufacturers instructions. Prepared samples were run on an Attune NxT flow cytometer (Thermo Fisher).
# (§8) Quantification of cytokine release inhibition: known concentration standards were run as part of the cytokine panel to allow quantification of each cytokine concentration in each sample. This was carried out using FCAP Array v3.0 software.
# (§9) Results: The dose response relationship on cytokine release following LPS induction of inflammatory response in whole blood was assessed for all compounds. IC50 values were determined for each compound for a panel of cytokines (GM-CSF, IFN-gamma, IL-1beta, IL-2, IL-4, IL-5, IL-6, IL-8, IL-9, IL-10, IL-12p40, IL-13, IL-17A, IL-17F, IL-18, IL-21, IL-22, IL-33, TGF-beta, TNF-alpha, TNF-beta).
# Human neutrophils = experiment: Inhibition of ROS production in human neutrophils (isoluminol chemiluminescence); conditions: Homo sapiens, Neutrophil, fMLP+TNF-α stimulated PMN
# Procedure, shortened: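 Neutrophils from healthy-donor buffy coats (3×10^6/ml in HBSS with Ca/Mg) pre-incubated 30 min at 37° C with compound (0.1–10 μM), primed with TNF-α 20 ng/ml for 10 min, then added to fibrinogen-coated wells. Isoluminol/HRP chemiluminescence recorded every 25 sec for 250 sec after fMLP (1 μM), background-subtracted.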
# TNF-beta = experiment: Cytokine release after LPS induction on human whole blood: TNFβ
# Description: as §1, §2, §3, §4, §5, §6, §7, §8, §9
# IFN-gamma = experiment: Cytokine release after LPS induction on human whole blood: IFNγ
# Description: as §1, §2, §3, §4, §5, §6, §7, §8, §9
# IL-1beta = experiment: Cytokine release after LPS induction on human whole blood: IL-1β
# Description: as §1, §2, §3, §4, §5, §6, §7, §8, §9
# IL-5 = experiment: Cytokine release after LPS induction on human whole blood: IL-5
# Description: as §1, §2, §3, §4, §5, §6, §7, §8, §9
# [1] = Homo sapiens, LPS 10 ng/ml, 18 h, read-out: Whole Blood: IL-9 IC50
# [2] = human whole blood, inhibition of LPS induced inflammation, read-out: IC50 IL-9
# [3] = Homo sapiens, LPS 10 ng/ml, 18 h, read-out: Whole Blood: TNF β IC50
# [4] = human whole blood, inhibition of LPS induced inflammation, read-out: IC50 β
# [5] = Homo sapiens, LPS 10 ng/ml, 18 h, read-out: Whole Blood: IFNγ IC50
# [6] = human whole blood, inhibition of LPS induced inflammation, read-out: IC50 IFNγ
# [7] = Homo sapiens, LPS 10 ng/ml, 18 h, read-out: Whole Blood: IL-1β IC50
# [8] = human whole blood, inhibition of LPS induced inflammation, read-out: IC50 IL-1b
# [9] = Homo sapiens, LPS 10 ng/ml, 18 h, read-out: Whole Blood: IL-5 IC50
# [10] = human whole blood, inhibition of LPS induced inflammation, read-out: IC50 IL-5
Structure (SMILES),IC50 (IL-9; [1]),IC50 (IL-9; [2]),IC50 (Human neutrophils),IC50 (TNF-beta; [3]),IC50 (TNF-beta; [4]),IC50 (IFN-gamma; [5]),IC50 (IFN-gamma; [6]),IC50 (IL-1beta; [7]),IC50 (IL-1beta; [8]),IC50 (IL-5; [9]),IC50 (IL-5; [10]),inhibition at 0.3 µM (Human neutrophils),further results
"O=C(O)c1cc(NC(=O)c2cc(O)c(C(=O)O)cc2O)cc(C(=O)O)c1 [Ia-015a, 5-(4-carboxy-2,5-dihydroxybenzamido)isophthalic acid]",1.47 µM,1.47 µM,0.387 µM,0.3 µM,0.3 µM,> 100 µM,100 µM,> 100 µM,100 µM,> 100 µM,100 µM,43.8%,
"O=C(O)c1cc(NC(=O)c2cc(O)c(C(=O)O)cc2O)cc(NC(=O)c2cc(O)c(C(=O)O)cc2O)c1 [Ib-010a, 3,5-bis(2,5-dihydroxy-4-carboxybenzoylamino)benzoic acid]",11.6 µM,11.6 µM,1.06 µM,49.3 µM,49.3 µM,2.22 µM,2.22 µM,33.3 µM,33.3 µM,> 100 µM,100 µM,71.8%,
"O=C(O)c1cc(NC(=O)c2cc(O)c(C(=O)Nc3ccccc3-c3nnn[nH]3)cc2O)ccc1O [Ic-001a-Tz/004a, 5-(4-(2-(1H-tetrazol-5-yl)phenylaminocarbonyl)-2,5-dihydroxybenzamido)-2-hydroxy benzoic acid]",,,,,,,,,,,,82.8%,"IC50 (IL-9; Homo sapiens, 18 h, read-out: Whole Blood: IL-9 IC50): 8.48 µM; IC50 (IL-9; Homo sapiens, read-out: IC50 IL-9): 8.48 µM; IC50 (TNF-beta; Homo sapiens): 3.02 µM; IC50 (TNF-beta; Homo sapiens, 18 h, read-out: Whole Blood: TNF β IC50): 3.02 µM; IC50 (IFN-gamma; Homo sapiens, 18 h, read-out: Whole Blood: IFNγ IC50): 0.61 µM; IC50 (IFN-gamma; Homo sapiens, read-out: IC50 IFNγ): 0.61 µM; IC50 (IL-1beta; Homo sapiens, 18 h, read-out: Whole Blood: IL-1β IC50): > 100 µM; IC50 (IL-1beta; Homo sapiens, read-out: IC50 IL-1b): 100 µM; IC50 (IL-5; Homo sapiens, 18 h, read-out: Whole Blood: IL-5 IC50): > 100 µM; IC50 (IL-5; Homo sapiens, read-out: IC50 IL-5): 100 µM"
"O=C(O)c1cc(NC(=O)c2cc(O)c(C(=O)Nc3ccc(O)c(C(=O)O)c3)cc2O)ccc1O [Ic-007a, 5-(4-(3-carboxy-4-hydroxyphenylaminocarbonyl)-2,5-dihydroxybenzamido)-2-hydroxy benzoic acid]",27.1 µM,27.1 µM,2.7 µM,6.52 µM,6.52 µM,1.44 µM,1.44 µM,> 100 µM,100 µM,> 100 µM,100 µM,58%,

# Continued, in another order:
IC50 (IL-9; [1]),IC50 (IL-9; [2]),IC50 (Human neutrophils),IC50 (TNF-beta; [3]),IC50 (TNF-beta; [4]),IC50 (IFN-gamma; [5]),IC50 (IFN-gamma; [6]),IC50 (IL-1beta; [7]),IC50 (IL-1beta; [8]),IC50 (IL-5; [9]),IC50 (IL-5; [10]),Structure (SMILES),inhibition at 0.3 µM (Human neutrophils),further results
26.8 µM,26.8 µM,6.52 µM,38.2 µM,38.2 µM,2.79 µM,2.79 µM,> 100 µM,100 µM,> 100 µM,100 µM,"CCOC(=O)c1cc(NC(=O)c2cc(O)c(C(=O)OCC)cc2O)cc(NC(=O)c2cc(O)c(C(=O)OCC)cc2O)c1 [Ib-010a-E3, ethyl 3,5-bis(2,5-dihydroxy-4-ethoxycarbonylbenzoylamino)benzoate]",36.4%,
9.13 µM,,,0.41 µM,,1.38 µM,,> 100 µM,,> 100 µM,,"O=C(Nc1ccccc1-c1nnn[nH]1)c1cc(O)c(C(=O)Nc2ccccc2-c2nnn[nH]2)cc1O [Ic-001aTz2, N1,N4-bis(2-(1H-tetrazol-5-yl)phenyl)-2,5-dihydroxyterephthalamide]",60.6%,
